The record followed here is patent US11214570B2, “Pyrrolopyridine derivative, method for producing same, and use thereof” (ST PHARM CO., LTD., priority 2017, dated 2022).

Data set [1] concerns HIV-1 NL4-3 wt. The experiment in a line: Inhibition of HIV-1 NL4-3 wt. Type of data set: cell-based. As to conditions: Human immunodeficiency virus 1, NL43. As to the method:
(§1) In order to look into the HIV-1 (Wild/Mutant type) inhibition effects of the compound of the invention, a test for HIV-1 (Wild/Mutant type) inhibition effect was carried out in vitro as follows according to a known method (H. Tanaka et al., J. Med. Chem., 1991, 34, 349). MT-4 cells were used as host cells, and the degree of the compound of the present invention inhibiting cytotoxicity for the virus-infected MT-4 cells was investigated.
(§2) First, MT-4 cells were dispersed in a culture medium at a concentration of 1×10^4cells/well, and HIV-1 was inoculated so that the concentration was 500 TCI50 (concentration at which 50% of the cells are infected)/well. Immediately after the inoculation, the cell dispersion was transferred in 100 μL each to a flat microtiter plate in which a sample of the compound of the invention was placed. The sample was incubated for approximately for 4 to 5 days at […], and the virus inhibition effect was determined with an MTT method. […] As a comparative compound, azidothymidine (AZT), Raltegravir, Dolutegravir, and Elvitegravir were used.

Data set [2] relates to HIV-1 Clone 1556_1. The experiment in a line: Inhibition of HIV-1 clone 1556_1 (Raltegravir resistance mutant). Type of data set: cell-based. As to conditions: Human immunodeficiency virus 1. How it is done:
as §1, §2

In data set [3] the test system is HIV-1 Clone 4736_4. The experiment in a line: Inhibition of HIV-1 clone 4736_4 (Raltegravir resistance mutant). In kind it is cell-based. As to conditions: Human immunodeficiency virus 1. How it is done: as §1, §2
The test system of data set [4] is HIV-1 Clone 8070_2. The data set can be described thus: Inhibition of HIV-1 clone 8070_2 (Raltegravir resistance mutant). In kind it is cell-based. As to conditions: Human immunodeficiency virus 1. How it is done: as §1, §2
The subject of data set [5] is HIV-1 Clone 8070_1. The experiment in a line: Inhibition of HIV-1 clone 8070_1 (Raltegravir resistance mutant). In kind it is cell-based. As to conditions: Human immunodeficiency virus 1. How it is done:
as §1, §2

Data set [6] concerns HIV-1 Clone 4736_2. The experiment in a line: microbe, parasite or virus in culture. Type of data set: cell-based. As to conditions: Human immunodeficiency virus 1. How it is done:
as §1, §2

Data set [7] deals with Wild Type HIV-1(IIIB). The data set can be described thus: Inhibition of wild type HIV-1(IIIB) in MT-4 cells (MTT method). Type of data set: cell-based. As to the method:
as §1, §2
In general terms: Tetrazolium assays rely on reduction of a dye to a coloured formazan, in cell work by metabolically active cells.

Data set [8] is described as follows: Liver microsomal stability, monkey. In kind it is in vitro ADME. As to conditions: monkey liver microsome, NADPH, read-out: Monkey liver (T1/2, Min). How it is done:
(§3) The in vitro metabolic stability test was conducted for the compound of Example 1 of the present invention. In order to confirm in vitro metabolic stability, liver microsomal half-life of the compound was observed. A drug compound was reacted with NADPH using a species-specific (rat, dog, monkey, and human) liver microsome containing various metabolizing enzymes, and then half-life of the drug was determined by quantifying with LC-MS/MS in minutes.
For orientation: Microsomes from liver hold many membrane-bound enzymes, among them those of drug oxidation.

A short description of data set [9]: Liver microsomal stability, dog. In kind it is in vitro ADME. As to conditions: dog liver microsome, NADPH, read-out: Dog liver (T1/2, Min). As to the method:
as §3

Data set [10] in a line: Liver microsomal stability, rat. As to conditions: rat liver microsome, NADPH. In kind it is in vitro ADME. How it is done: as §3
The nature of data set [11]: Liver microsomal stability, human. Type of data set: in vitro ADME. As to conditions: human liver microsome, NADPH. How it is done: as §3
Data set [12] is described as follows: Pharmacokinetics test in male rats. In kind it is in vivo, rat. As to the method: Experiments were carried out to detect changes in in vivo kinetics including in vivo absorption, distribution, metabolism and excretion for the compound of Example 1 of the present invention. A tube was inserted into the jugular vein and femoral vein of a rat. A drug was administered into the femoral vein in the case of intravenous administration, and a drug was administered into the oral cavity in the case of oral administration. Blood was collected from the jugular vein at a predetermined time. Dose concentration was 1 mg/kg for intravenous administration, and it was 2 mg/kg for oral administration. After centrifuging blood to separate plasma, the plasma and urine samples were pretreated with an appropriate organic solvent, and then concentration of the drug was analyzed with LC-MS/MS. From the data of the drug concentration in blood relative to time which were analyzed after oral and intravenous administrations, the noncompartmental pharmacokinetic parameter was calculated with WinNonlin (Pharsight, USA).

The target in data set [13] is T1, hERG K+ channel (Homo sapiens, UniProt Q12809).
T1 construct: expressed in transfected cells; host or cells: HERG-HEK293
T1 sequence (Q12809 whole entry): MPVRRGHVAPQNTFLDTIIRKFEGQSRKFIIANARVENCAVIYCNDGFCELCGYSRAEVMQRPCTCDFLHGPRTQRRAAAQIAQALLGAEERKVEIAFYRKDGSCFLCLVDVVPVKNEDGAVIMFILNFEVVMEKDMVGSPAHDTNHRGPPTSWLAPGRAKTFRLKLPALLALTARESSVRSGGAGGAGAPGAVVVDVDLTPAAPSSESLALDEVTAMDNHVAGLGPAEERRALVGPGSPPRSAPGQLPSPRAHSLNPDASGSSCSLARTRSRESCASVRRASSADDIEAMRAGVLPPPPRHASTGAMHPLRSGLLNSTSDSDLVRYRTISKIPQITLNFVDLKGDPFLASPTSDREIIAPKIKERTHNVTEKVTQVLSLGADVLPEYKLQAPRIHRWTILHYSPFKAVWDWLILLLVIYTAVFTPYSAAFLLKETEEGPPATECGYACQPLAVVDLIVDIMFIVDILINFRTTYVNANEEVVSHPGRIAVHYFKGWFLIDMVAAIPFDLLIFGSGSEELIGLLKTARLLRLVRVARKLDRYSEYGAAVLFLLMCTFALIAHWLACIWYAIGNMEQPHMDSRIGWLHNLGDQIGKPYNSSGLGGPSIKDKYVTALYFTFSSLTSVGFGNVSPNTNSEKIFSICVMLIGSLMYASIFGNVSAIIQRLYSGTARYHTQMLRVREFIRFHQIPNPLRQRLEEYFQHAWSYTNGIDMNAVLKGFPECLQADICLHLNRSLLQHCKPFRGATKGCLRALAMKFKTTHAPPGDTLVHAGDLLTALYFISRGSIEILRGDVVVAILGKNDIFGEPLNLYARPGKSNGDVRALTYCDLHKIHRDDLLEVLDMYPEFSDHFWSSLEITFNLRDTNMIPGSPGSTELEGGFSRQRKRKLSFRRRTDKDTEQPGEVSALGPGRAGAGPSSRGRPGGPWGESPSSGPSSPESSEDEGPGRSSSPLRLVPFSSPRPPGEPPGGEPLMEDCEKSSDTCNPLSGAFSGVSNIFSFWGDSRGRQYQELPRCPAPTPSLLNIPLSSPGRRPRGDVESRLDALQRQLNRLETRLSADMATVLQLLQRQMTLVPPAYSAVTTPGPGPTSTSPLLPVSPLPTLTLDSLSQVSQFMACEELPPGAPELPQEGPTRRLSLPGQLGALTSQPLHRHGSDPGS
The experiment in a line: hERG K+ channel assay (Patch Clamp Recording Method). Type of data set: cell-based. As to conditions: HERG-HEK293, automated planar patch clamp. How it is done: hERG K^+ channel assay was carried out to predict cardiotoxicity for the compound of the invention. The hERG activity of the compound was measured with HERG-HEK293 using automated planar patch clamp [PatchXpress 7000A]. This method is the most well-known method for studying ion channel, in which the flow of ions through the channel is directly measured with a voltage clamp.
Background: The hERG channel carries a current that helps repolarise heart muscle cells.

Data set [14] concerns CYP1A2, CYP2C9, CYP2D6, CYP3A4 and CYPC19. The data set can be described thus: CYP450 inhibition test (five enzymes, text summary). In kind it is in vitro ADME. As to conditions: human liver microsomes, 10 μM. How it is done:
The CYP450 inhibition test was carried out for the compound of the present invention. To human liver microsomes (0.25 mg/ml), 0.1 M phosphate buffer (pH 7.4) and drug cocktails of five drug-metabolizing enzymes (CYP1A2, CYP2C9, CYP2D6, CYP3A4 and CYPC19) (Cocktail A: Phenacetin 50 μM, S-mephenytoin 100 μM, dextromethorphan 5 nM, midazolam 2.5 μM, Cocktail B: tolbutamide 100 μM), the compound of Example 1 was added at concentrations of 0 and 10 μM, respectively, and then cultured at 37° C. for 15 minutes. Subsequently, in order to terminate the reaction, an acetonitrile solution containing an internal standard (chloropropamide) was added thereto, and resulting mixture was centrifuged (14,000 rpm, 4° C.) for 5 minutes. Supernatant was then injected into LC/MS/MS system and the metabolites of the substrate drugs were simultaneously analyzed to thereby evaluate activities of the test compound inhibiting the drug-metabolizing enzymes.

Where [15] appears, read: Human immunodeficiency virus 1, IIIB, MT4, read-out: EC50: concentration of 50% inhibition of HIV infection.

Read-outs that look alike come from different tables or passages of the source. A value given as a limit tells only on which side of the number the result lay.

What is called IC50 is the concentration that inhibits the measured activity by half. Consider `C[C@@H]1CCO[C@H]2Cn3cc(C(=O)NCc4ccc(F)cc4F)c(=O)c(O)c3C(=O)N12` [Dolutegravir], for which the IC50 in data set [1] (NL4-3 wt, read-out: IC50) came to 3.2 nM; in data set [2], 3.2 nM; in data set [3], 3 nM; in data set [4], 4.4 nM; in data set [5], 8.5 nM; in data set [6], 3.5 nM.
Regarding `Cc1nnc(C(=O)NC(C)(C)c2nc(C(=O)NCc3ccc(F)cc3)c(O)c(=O)n2C)o1` [Raltegravir], the IC50 in data set [1] was 4.6 nM; in data set [2] it was 3760 nM; in data set [3], 351 nM; in [4], 3840 nM; in [5], 4320 nM; in data set [6] it was 351 nM. Besides, the EC50 in [7] (setting [15]) was determined as 5.85 nM.
For `C[C@]12CC[C@H]3[C@@H](CCC4=CC(=O)CC[C@@]43C)[C@@H]1CC[C@@H]2O` [Testosterone, reference compound], the results for the half-life in [8] (microsomes) and in data set [9] (microsomes) were 13 min and 23.6 min, respectively. Further, in data set [10], the “Rat liver (T1/2, Min)” value stood at 0.7 min. Moreover, the “Human liver (T1/2, Min)” value in data set [11] amounted to 19.7 min.
The term AUC(0-inf) denotes the area under the concentration-time curve extrapolated to infinity. A word on the AUC(0-t): it is exposure summed from dosing to a finite time, without extrapolation to infinity. For orientation: clearance means the volume of plasma or blood freed of the substance per unit of time. In general, Cmax refers to the maximum level reached in the sampled fluid or tissue. The Tmax is the time at which the peak concentration occurs. Consider `Cc1nc2c(c(C)c(C)n2Cc2cnn(C)c2)c(-c2ccc(Cl)cc2)c1[C@H](OC(C)(C)C)C(=O)O` [Example 1], for which, in data set [12] (PO, 2 mg/kg), the F turned out to be 71.8%. For the same molecule, the AUC(0-inf) in data set [12] (rat, plasma, IV, 1 mg/kg) stood at 6.51 µM·h; in data set [12] (rat, plasma, PO, 2 mg/kg) it was 10.4 µM·h. Moreover, the AUC(0-t) turned out to be 6.08 µM·h in data set [12] (rat, plasma, IV, 1 mg/kg) and 8.73 µM·h in [12] (rat, plasma, PO, 2 mg/kg). Besides, the clearance in [12] (rat, plasma, IV, 1 mg/kg) was 5.38 mL/min/kg. In addition, the half-life is 8.63 h in data set [12] (rat, plasma, IV, 1 mg/kg); 8.66 h in data set [12] (rat, plasma, PO, 2 mg/kg); 133 min in data set [8] (liver microsomes); greater than 145 min in [9] (liver microsomes); greater than 145 min in data set [10] (liver microsomes, read-out: Rat liver (T1/2, Min)); 136 min in data set [11] (liver microsomes, read-out: Human liver (T1/2, Min)). In addition, in data set [12] (rat, plasma, IV, 1 mg/kg, read-out: Vss), the Vd is 1.77 L/kg. Also, the highest level in data set [12] (rat, plasma, PO, 2 mg/kg) (Cmax) was 914 nM. In addition, the Tmax in [12] (rat, plasma, PO, 2 mg/kg) came to 3.2 h. Moreover, the IC50 worked out at 3.6 nM in data set [1]; 3.4 nM in data set [2]; 66700 nM in data set [13]; 3.4 nM in data set [3]; 3.4 nM in data set [4]; 0.9 nM in data set [5]. 1.1 nM corresponded to half-maximal inhibition in data set [6] (IC50). For the same molecule, in [14], the “inhibitory activity against five CYP enzymes” value is “does not exhibit an inhibitory activity”. For the same molecule, in data set [7] (setting [15]), the EC50 turned out to be 3.23 nM.
For the molecule `COc1cc2c(cc1Cc1cccc(Cl)c1F)c(=O)c(C(=O)O)cn2[C@H](CO)C(C)C` [Elvitegravir], the IC50 in [1] was less than 0.1 nM; in data set [2] it was 276 nM; in [3] it was 320 nM; in [5] it was greater than 10000 nM; in [6], 410 nM.
Take `Cc1nn(C)c(Cl)c1Cn1c(C)c(C)c2c(-c3ccc(Cl)cc3)c([C@H](OC(C)(C)C)C(=O)O)c(C)nc21` [Example 2, (S)-2-(tert-butoxy)-2-(1-((5-chloro-1,3-dimethyl-1H-pyrazol-4-yl)methyl)-4-(4-chlorophenyl)-2,3,6-trimethyl-1H-pyrrolo[2,3-b]pyridin-5-yl) acetic acid]: the EC50 in data set [7] (Human immunodeficiency virus 1, MT4, Wild Type HIV-1(IIIB) in MT-4 Cells, MTT method, read-out: EC50: concentration of 50% inhibition of HIV infection) was determined as 25.7 nM.
